Values of other authors, collected in patent US20100136096A1, “Systems for modulating inflammation” (Searete LLC, a limited liability corporation of the State …, priority 2008, published 2010).

Columns and labels:
[1] = tested on: Src family kinases (Src, Lck, Yes, Fyn); settings: at nanomolar concentrations
Src family kinase = settings: Sanjuan et al. 2006
lethal septic shock = settings: mice; Nakamura et al. 2007
[2] = single agent, 400 mg infused over one hour; Looareesuwan et al. 1986
proteasomal activity = settings: cultured breast cancer cells; disulfiram bound to copper; Chen et al. 2006

For `Cc1nc(Nc2ncc(C(=O)Nc3c(C)cccc3Cl)s2)cc(N2CCN(CCO)CC2)n1.O` [dasatinib, N-(2-chloro-6-methylphenyl)-2-[[6-[4-(2-hydroxyethyl)-1-piperazinyl]-2-methyl-4-pyrimidinyl]amino]-5-thiazolecarboxamide, monohydrate], the “inhibition of Src family kinases (Src, Lck, Yes, Fyn)” value [1] is given as “inhibits”.

For `CCN(CC)CCCC(C)Nc1ccnc2cc(Cl)ccc12` (stereo not drawn) [Chloroquine], the “inhibition of CpG-induced Src family kinase activation, or its dependent cellular responses” value (Src family kinase) is given as “does not inhibit”.

For `Cl.Cl.Nc1ccccc1Oc1ccc2c(N)nsc2c1` [Example M62812, 3-amino-6-(2-aminophenoxy)-1,2-benzisothiazole dihydrochloride], the “prevention of lethal septic shock” value (lethal septic shock) is listed as “prevents lethal septic shock”.

In the case of `CCN(CC)CCCC(C)Nc1ccnc2cc(Cl)ccc12.O=P(O)(O)O.O=P(O)(O)O` (stereo not drawn) [chloroquine phosphate, 7-chloro-4-[[4-(diethylamino)-1-methylbutyl]amino]quinoline phosphate (1:2)], the “tolerability of intravenous infusion” value [2] is given as “without complication”.

For `CCN(CC)C(=S)SSC(=S)N(CC)CC` [disulfiram, 1-(diethylthiocarbamoyldisulfanyl)-N,N-diethyl-methanethioamide], the “inhibition of aldehyde dehydrogenase” value (aldehyde dehydrogenase) is listed as “inhibits aldehyde dehydrogenase without toxicity” and the proteasomal activity (proteasomal activity) is listed as “inhibits proteasomal activity”.
